Results from patent US4407806A, “Fungicidal, herbicidal and plant growth regulating pyridyl-containing ethers” (Chevron Research Company, priority 1981, dated 1983).

How the values were obtained:
Assay type in all cases: in vivo
[1] = test system: grape downy mildew organism Plasmopara viticola; assay: Grape Downy Mildew control (detached grape leaves); details: vs untreated check, read-out: Fungicidal Activity Control %, Grape D.M.
[2] = test system: Tomato Late Blight organism Phytophthora infestans; assay: whole plant or invertebrate; details: 168 h, read-out: Fungicidal Activity Control %, Tomato L.B.
[3] = test system: celery late blight organism Septoria apii; assay: whole plant or invertebrate; details: 336 h, read-out: Fungicidal Activity Control %, Celery L.B.
[4] = test system: tomato Early Blight organism, Alternaria solani conidia; assay: Tomato Early Blight control; details: 288 h, about 12 days in greenhouse, vs untreated check, read-out: Fungicidal Activity Control %, Tomato E.B.
Procedure: Compounds of the invention were tested for the control of the tomato Early Blight organism, Alternaria solani conidia. Tomato (variety Bonny Best) seedlings of 6 to 7 weeks old were used. The tomato plants were sprayed with a 250 ppm solution of the test compound in an acetone-and-water solution containing a small amount of a nonionic emulsifier. The sprayed plants were inoculated one day later with the organism, placed in the environmental chamber and incubated at […] and 100% relative humidity for 24 hours. Following the incubation, the plants were maintained in a greenhouse for about 12 days. Percent diseases control was based on the percent disease development on untreated check plants.

[5] = test system: Bean Powdery Mildew organism Erisiphe polygoni; assay: Bean Powdery Mildew control; details: 240 h, 10 days, vs untreated check, read-out: Fungicidal Activity Control %, Bean P.M.
Procedure: The compounds of the invention were tested for the control of the Bean Powdery Mildew organism […] polygoni. Seedling bean plants were sprayed with a 250 ppm solution of the test compound in acetone, water and a nonionic emulsifier. The sprayed plants were then inoculated 1 day later with organism. […] The percent disease control provided by a given test compound was based on the percent disease reduction relative to the untreated check plants.

[6] = test system: Crabgrass (Digitaria sanguinalis); assay: Pre-emergent herbicidal test; details: 504 h, pre-emergence, 33 micrograms/cm^2, 3 weeks, 0-to-100 scale, read-out: Herbicidal Activity Pre-Emergence % Control, Crab Grass
Procedure: (§1) An acetone solution of the test compound was prepared by mixing 750 mg of the compound, 220 mg of a nonionic surfactant and 25 ml of acetone. This solution was added to approximately 125 ml of water containing 156 mg of surfactant.
(§2) Seeds of the test vegetation were planted in a pot of […] and the test solution was sprayed uniformly onto the soil surface at a dose of 33 micrograms/cm^2. The pot was watered and placed in a greenhouse. […] At the end of this period, the herbicidal effectiveness of the compound was rated based on the physiological observations. A 0-to-100 scale was used, 0 representing no phytotoxicity, 100 representing complete kill.

[7] = test system: Lambsquarter (Chenopodium album); assay: Pre-emergent herbicidal test; details: 504 h, pre-emergence, 33 micrograms/cm^2, 3 weeks, 0-to-100 scale, read-out: Herbicidal Activity Pre-Emergence % Control, L'Qtr.
Procedure: as §1, §2

[8] = test system: Mustard (Brassica arvensis); assay: Pre-emergent herbicidal test; details: 504 h, pre-emergence, 33 micrograms/cm^2, 3 weeks, 0-to-100 scale
Procedure: as §1, §2

[9] = test system: Pigweed (Amaranthus retraflexus); assay: Pre-emergent herbicidal test; details: 504 h, pre-emergence, 33 micrograms/cm^2, 3 weeks, 0-to-100 scale
Procedure: as §1, §2

Soybean [10] = assay: Pre-emergent herbicidal test; details: Glycine max, 504 h; pre-emergence; 33 micrograms/cm^2; 3 weeks; 0-to-100 scale; read-out: Herbicidal Activity Pre-Emergence % Control, Soybean
Procedure: as §1, §2

[11] = test system: Watergrass (Echinochloa crusgalli); assay: Pre-emergent herbicidal test; details: Echinochloa crus-galli, 504 h; pre-emergence; 33 micrograms/cm^2; 3 weeks; 0-to-100 scale; read-out: Herbicidal Activity Pre-Emergence % Control, Water Grass
Procedure: as §1, §2

Wild Oats (Avena fatura) [12] = assay: Pre-emergent herbicidal test; details: 504 h, pre-emergence, 33 micrograms/cm^2, 3 weeks, 0-to-100 scale
Procedure: as §1, §2

[13] = test system: Crabgrass (Digitaria sanguinalis); assay: Post-emergent herbicidal test; details: 504 h, post-emergence, 33 micrograms/cm^2, 3 weeks, 0-to-100 scale, read-out: Herbicidal Activity Post-Emergence % Control, Crab Grass
[14] = test system: Lambsquarter (Chenopodium album); assay: Post-emergent herbicidal test; details: 504 h, post-emergence, 33 micrograms/cm^2, 3 weeks, 0-to-100 scale, read-out: Herbicidal Activity Post-Emergence % Control, L'Qtr.
[15] = test system: Mustard (Brassica arvensis); assay: Post-emergent herbicidal test; details: 504 h, post-emergence, 33 micrograms/cm^2, 3 weeks, 0-to-100 scale
[16] = test system: Pigweed (Amaranthus retraflexus); assay: Post-emergent herbicidal test; details: 504 h, post-emergence, 33 micrograms/cm^2, 3 weeks, 0-to-100 scale
Soybean [17] = assay: Post-emergent herbicidal test; details: Glycine max, 504 h, post-emergence, 33 micrograms/cm^2, 3 weeks, 0-to-100 scale, read-out: Herbicidal Activity Post-Emergence % Control, Soybean
[18] = test system: Watergrass (Echinochloa crusgalli); assay: Post-emergent herbicidal test; details: Echinochloa crus-galli, 504 h, post-emergence, 33 micrograms/cm^2, 3 weeks, 0-to-100 scale, read-out: Herbicidal Activity Post-Emergence % Control, Water Grass
Wild Oats (Avena fatura) [19] = assay: Post-emergent herbicidal test; details: 504 h, post-emergence, 33 micrograms/cm^2, 3 weeks, 0-to-100 scale
Idaho pinto bean plants = assay: Axillary Bud Growth Inhibition Of Pinto Bean Plants; details: 288 h; 625-ppm; twelve days after treatment; vs untreated check; read-out: Bud Inhib (percent inhibition of axillary bud growth)
Procedure: Compounds of this invention were tested to determine their plant-growth-retarding effects on axillary bud growth of pinto beans.
Idaho pinto bean plants (13-16 days old) having monofoliate leaves fully developed and first trifoliates beginning to unfold were used. All growth 5 mm above the monofoliate leaf node was removed with forceps 1 to 4 hours prior to treatment with the test compounds. Four plants were used for each test compound.
A 625-ppm solution of the test compound in a 2% aqueous acetone solution containing a small amount of a nonionic surfactant was sprayed onto the pinto bean plants until runoff. After drying, the treated plants were transferred to a greenhouse maintained at 20°-23° C. and watered at regular intervals. Twelve days after treatment, the bud growth at the axil of the monofoliate leaf was determined and expressed as percent inhibition of axillary bud growth as compared to untreated check plants.

Cotton plants = assay: Cotton Regrowth; details: Gossypium hirsutum, 13 to 18 days, 100% is total inhibition, read-out: Regrowth (percent inhibition of cotton regrowth)
Procedure: Compounds of this invention were tested to determine their plant-growth regulating effects on cotton leaf regrowth.
Cotton plants, 4 to 5 weeks old, containing 4 true leaves above the cotyledonary leaves are employed. Growth beyond the second true leaf was removed. Within 24 hours the plants are sprayed with a 2000 ppm solution of the test compound. After spraying, the plants are transferred to a greenhouse maintained at 85° F. (±5° F.) and incubated there for from 13 to 18 days. The plants during this period are sub-irrigated in 1/4" of water.
After this period, regrowth is determined as a percent inhibition of auxiliary bud regrowth--100% is total inhibition while 0% is no inhibition.

Compound	pest or weed control at 250 ppm [1] [%]	pest or weed control at 250 ppm [2] [%]	pest or weed control at 250 ppm [3] [%]	pest or weed control at 250 ppm [4] [%]	pest or weed control at 250 ppm [5] [%]	pest or weed control at 33 µg/cm2 [6] [%]	pest or weed control at 33 µg/cm2 [7] [%]	pest or weed control at 33 µg/cm2 [8] [%]	pest or weed control at 33 µg/cm2 [9] [%]	plant injury at 33 µg/cm2 (Soybean [10]) [%]	pest or weed control at 33 µg/cm2 [11] [%]	pest or weed control at 33 µg/cm2 (Wild Oats (Avena fatura) [12]) [%]	pest or weed control at 5000 ppm, 33 µg/cm2 [13] [%]	pest or weed control at 5000 ppm, 33 µg/cm2 [14] [%]	pest or weed control at 5000 ppm, 33 µg/cm2 [15] [%]	pest or weed control at 5000 ppm, 33 µg/cm2 [16] [%]	plant injury at 5000 ppm, 33 µg/cm2 (Soybean [17]) [%]	pest or weed control at 5000 ppm, 33 µg/cm2 [18] [%]	pest or weed control at 5000 ppm, 33 µg/cm2 (Wild Oats (Avena fatura) [19]) [%]	pest or weed control at 625 µg/mL (Idaho pinto bean plants) [%]	other results
C=C(Cl)COC(c1cccnc1)c1ccc(Cl)cc1Cl (stereo not drawn) [Compound 4, 3-pyridyl-2,4-dichlorophenylcarbinol 2-chloroallylether]	27	0	83	73	100	70	73	30	35	0	83	33	0	55	58	45	28	0	0	30	inhibition at 2000 ppm (Cotton plants): 0%
FC(F)(F)c1cccc(COC(c2cccnc2)c2ccc(Cl)cc2Cl)c1 (stereo not drawn) [Compound 5, 3-pyridyl-2,4-dichlorophenylcarbinol 3-trifluoromethylbenzylether]	12	0	91	71	100	70	25	25	45	30	55	15	0	63	40	55	30	0	0	70	inhibition at 2000 ppm (Cotton plants): 65%
CC(C)(C)c1ccc(COC(c2cccnc2)c2ccc(Cl)cc2Cl)cc1 (stereo not drawn) [Compound 6, 3-pyridyl-2,4-dichlorophenylcarbinol 4-t-butylbenzylether]	50	0	78	40	100	68	15	20	35	0	65	25	0	60	25	55	35	0	0	60	inhibition at 2000 ppm (Cotton plants): 90%
